{"source": "paper PMC10537410", "about": "(Pharmaceutics, 2023)", "experiment": "In vitro dissolution in simulated lung fluid", "type": "physicochemical", "details": "simulated lung fluid with 0.01% w/v DPPC, ca. 2 mg CsA in 100 mL, 100 r/min, 37 °C, HPLC; n = 3", "protocol": "In vitro dissolution was carried out in simulated lung fluid. Simulated lung fluid was prepared with some modifications according to the literature. The composition of simulated lung fluid included NaCl (6.40 g/L), CaCl2·2H2O (0.26 g/L), Na2HPO4 (0.15 g/L), NaHCO3 (2.70 g/L), NH4Cl (0.12 g/L), MgCl2 (0.10 g/L), Na2SO4·10H2O (0.18 g/L), Na3citrate·2H2O (0.16 g/L), Glycine (0.19 g/L), and dipalmitoylphosphatidylcholine (0.01% w/v). Raw CsA and formulation (ca. 2 mg CsA) were dispersed in 100 mL dissolution medium and placed in a magnetic stirrer (MR Hei-Tec, Heidolph, Germany) maintained at 100 r/min and 37 °C. At predetermined intervals, suspensions (0.5 mL) were withdrawn and centrifuged. The supernatants were diluted with 0.5 mL of ethanol and determined by the HPLC method, as described in Section 2.3."}
{"substance": "Cyclosporine A [raw CsA]", "values": [{"measurement": "Release amount within 24 h", "result": "≤ 24", "unit": "%"}]}
